Data set [1] is described as follows: Volume of distribution in Wistar rat plasma at 1 mg/kg, iv by HPLC-MS/MS analysis. The class given is ADME, organism-based.
The nature of data set [2]: Tmax in Wistar rat total plasma at 1 mg/kg, po by HPLC-MS/MS analysis. Format: ADME, organism-based.
Data set [3] in a line: AUC (0 to infinity) in Wistar rat total plasma at 1 mg/kg, po by HPLC-MS/MS analysis. Also on record: time infinity, dose 1 mg/kg, route po. The class given is ADME, organism-based.
Data set [4] is described as follows: Cmax in Wistar rat total plasma at 1 mg/kg, po by HPLC-MS/MS analysis. The class given is ADME, organism-based. Also on record: dose 1 mg/kg, route po.
A short description of data set [5]: Ratio of drug level in brain to plasma in Wistar rat at 1 mg/kg, iv by HPLC-MS/MS analysis. Format: ADME, organism-based. Particulars: brain and plasma, read-out: BPR.
Data set [6] in a line: Apparent permeability in human Caco2 cells assessed as permeability damage ratio at 1 uM by HPLC-UV analysis. Format: ADME, cell-based. Particulars: caco-2, 1 µM.
The nature of data set [7]: Plasma protein binding in human. The class given is ADME, cell-free. Particulars: read-out: PPB (converted).
The target of a further data set is T1, Cytochrome P450 1A2 (Homo sapiens, UniProt P05177).
T1 sequence (P05177 whole entry): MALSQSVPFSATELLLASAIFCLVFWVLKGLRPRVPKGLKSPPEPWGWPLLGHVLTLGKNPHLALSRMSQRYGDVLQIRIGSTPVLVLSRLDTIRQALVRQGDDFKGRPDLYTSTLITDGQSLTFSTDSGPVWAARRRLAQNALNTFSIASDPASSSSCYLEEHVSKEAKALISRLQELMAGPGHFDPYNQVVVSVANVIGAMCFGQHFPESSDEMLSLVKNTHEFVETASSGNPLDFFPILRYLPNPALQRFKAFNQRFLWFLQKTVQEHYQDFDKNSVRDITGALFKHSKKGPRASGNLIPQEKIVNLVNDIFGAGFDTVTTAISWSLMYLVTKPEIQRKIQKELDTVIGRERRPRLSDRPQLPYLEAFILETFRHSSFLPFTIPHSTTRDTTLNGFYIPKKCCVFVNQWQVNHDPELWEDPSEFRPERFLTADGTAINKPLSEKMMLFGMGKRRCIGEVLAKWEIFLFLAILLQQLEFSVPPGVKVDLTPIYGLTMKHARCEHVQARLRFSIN
Put plainly: Inhibition of CYP1A2 (unknown origin). Format: ADME.

The target in the next data set is Cytochrome P450 3A4 (Homo sapiens, UniProt P08684). Put plainly: Inhibition of CYP3A4 (unknown origin). The class given is ADME.
Data set [8] concerns Rattus norvegicus. Description: Pro-cognitive activity in po dosed neonatal PCP-impaired social recognition Wistar rat model assessed as time spent social recognition administered 30 min before acquisition by social recognition test. Particulars: 0.5 h, read-out: MED. Format: functional.
The nature of data set [9]: […] in po dosed Wister rat assessed as motor impairment by assessing NOAEL by spontaneous motor activity test. Particulars: Wistar, in vivo. Format: organism-based.
In data set [10] the test system is Rattus norvegicus. Put plainly: Pro-cognitive activity in neonatal PCP-impaired social recognition Wistar rat model assessed as time spent in recognition of new juveniles at 10 mg/kg, po administered 30 min before acquisition by social recognition test. The class given is functional, organism-based.
Data set [11] can be described thus: Metabolic stability in guinea pig hepatocyte assessed as intrinsic clearance measured per 10^6 cells. Format: ADME, cell-based, Cavia porcellus. Particulars: hepatocytes, read-out: CLH.

Active and inactive are the calls of the source. The calls are words filed in the database; no cut-off is given here.

Cytochrome P450 3A4, sequence (P08684 whole entry): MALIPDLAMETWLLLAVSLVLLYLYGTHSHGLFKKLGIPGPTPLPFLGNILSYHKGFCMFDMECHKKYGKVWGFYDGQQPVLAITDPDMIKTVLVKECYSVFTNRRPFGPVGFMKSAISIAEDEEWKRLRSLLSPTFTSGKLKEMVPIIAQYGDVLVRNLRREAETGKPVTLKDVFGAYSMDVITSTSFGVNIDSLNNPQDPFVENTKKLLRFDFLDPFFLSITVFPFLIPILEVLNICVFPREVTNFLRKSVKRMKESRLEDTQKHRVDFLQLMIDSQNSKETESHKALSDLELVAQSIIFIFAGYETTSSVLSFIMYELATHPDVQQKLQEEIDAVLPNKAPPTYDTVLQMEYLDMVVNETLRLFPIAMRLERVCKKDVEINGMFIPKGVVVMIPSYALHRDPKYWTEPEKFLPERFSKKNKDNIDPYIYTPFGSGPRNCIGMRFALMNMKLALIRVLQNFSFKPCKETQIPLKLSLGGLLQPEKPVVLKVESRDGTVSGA

Consider `Cc1onc(-c2ccc(F)cc2)c1COc1ccc2c(n1)CCN(C(=O)CS(C)(=O)=O)C2`, for which, in [1], the Vd (as a rule, a proportionality between amount in the body and measured concentration, not a real space) was determined as 1.9 L/kg. Also, the Tmax – broadly, the time from dosing to the highest level – in data set [2] worked out at 30 min. Also, in data set [3], the AUC(0-inf) (commonly total exposure, with the tail of the curve extrapolated) was 146 ng·h/mL. Moreover, in data set [4], the Cmax (commonly the highest concentration seen after dosing) amounted to 115 ng/mL. The Kp in [5] was 0.54. Also, the Ratio in data set [6] was 0.93. Besides, the fraction unbound in data set [7] is 0.014. Also, the IC50 against Cytochrome P450 1A2 and on Cytochrome P450 3A4 was more than 50 µM throughout. The minimal effective dose in the data set with Rattus norvegicus [8] was 10 mg/kg. Moreover, in data set [9], the NOAEL (usually the highest dose or exposure tested at which no adverse effect was seen) was not below 100 mg/kg. Moreover, the result in the data set on Rattus norvegicus [10] was Active. In addition, the hepatocyte CLint in [11] was found to be 4 µL/min/1e6 cells.

For the origin of these results see ChEMBL document CHEMBL5154916, “Multiparameter Optimization of Naphthyridine Derivatives as Selective α5-GABAA Receptor Negative Allosteric Modulators” (J Med Chem, 2022).
